Source: patent US20250304985A1, “Genetically Engineered Plants for Increased Production of Vindoline” (Northeastern University, priority 2022, published 2025)

Legend:
Assay type in all cases: in vivo, Catharanthus roseus
[1] = tested on: CrDELLA1 and CrDELLA2 transcript levels; assay: Paclobutrazol treatment of etiolated seedlings: DELLA transcript levels by qPCR; conditions: 1 μM PAC, dark-grown seedlings, 4 days, vs DMSO mock
Method: (§1) Because PAC might disrupt germination, seedlings were first germinated normally without any treatment by incubating them in the dark for 5 days at 27° C. The germinated seeds were then transferred to either media containing 1 μM PAC or media containing an equal volume of DMSO as a mock treatment. These seedlings were kept in the dark for 4 more days before being harvested for gene expression analysis.
Gene expression levels were monitored using quantitative real-time PCR (qRT-PCR) with primers listed in Table 1. mRNA was extracted from liquid nitrogen flash-frozen leaf tissue or seedlings stored at −80° C. […] RNA integrity was assessed using agarose gel electrophoresis, and concentration and purity were quantified with a NanoDrop (ND-1000 Spectrophotometer; ThermoScientific). cDNA was synthesized using either the SuperScript II First-Strand Synthesis System (Invitrogen) or the LunaScript RT SuperMix Kit (New England Biolabs) with up to 2.5 μg of RNA, according to manufacturer's instructions. cDNA was diluted 1:4, and 1 μL was used in a 10 μL reaction with SYBR Green ROX qPCR Master Mix (Qiagen or ABClonal) and 300 nM primers on the MX3000P qPCR instrument (Agilent) using the thermocycler protocol previously described with an extension time of 30 seconds. Ct values for each biological replicate were calculated as the average of two technical replicates. […]

C. roseus seedlings = assay: Paclobutrazol treatment of etiolated seedlings: seedling height; conditions: 1 μM PAC, dark-grown seedlings, 4 days, vs DMSO mock
Method: as §1
Seedlings treated with PAC were photographed and lengths were measured with ImageJ. Statistical significance for all phenotype measurements was analyzed with a two-tailed unpaired T-test.
C. roseus var. Little Bright Eye seeds (NESeeds, 0.8 g) were sterilized by submersion in 4% Plant Preservative Mixture (PPM) for 18 hours in the dark. The PPM was then decanted, and the seeds were spread on full-strength Gamborg's media (3.1 g/L Gamborg's basal salts, 1× Gamborg's vitamins, and 6% micropropagation agar type 1, Phytotechnology Laboratory) inside a sterile Magenta™ Plant Culture Box (Sigma) for germination. […] Seedlings were maintained in the dark at 27° C. for 4 days, and then were harvested by placing 3 whole seedlings in a 2 mL screw cap tube containing ten 3 mm glass beads for each biological replicate, flash-freezing in liquid nitrogen, and storing at −80° C. until ready for RNA extraction and qPCR analysis.

CrLHCB2.2 = assay: Paclobutrazol treatment of etiolated seedlings: CrLHCB2.2 expression by qPCR (positive control); conditions: 1 μM PAC, dark-grown seedlings, 4 days, vs DMSO mock; normalized to SAND
Method: as §1
This is consistent with GA's positive role in growth and served as a good indicator that the PAC was having an effect on the seedlings. As a positive control, expression of CrLHCB2.2 was measured; CrLHCB2.2 is a homologue of the light harvesting complex subunit B 2.2, which was previously shown to be activated by PAC treatment of dark-grown seedlings in A. thaliana.
Gene expression levels were monitored using quantitative real-time PCR (qRT-PCR) with primers listed in Table 1. mRNA was extracted from liquid nitrogen flash-frozen leaf tissue or seedlings stored at −80° C. […] Ct values for each biological replicate were calculated as the average of two technical replicates. Transcript levels were normalized to the housekeeping gene, SAND [76], and fold changes relative to the negative control condition were calculated according to the […]. Amplification efficiency for each primer set was confirmed using Ct values over a range of cDNA dilutions and was 100%±10% for each gene monitored. […]

[2] = tested on: vindoline pathway gene expression; assay: Paclobutrazol treatment of etiolated seedlings: vindoline pathway gene expression by qPCR; conditions: 1 μM PAC, dark-grown seedlings, 4 days, vs DMSO mock
Method: as §1
Gene expression levels were monitored using quantitative real-time PCR (qRT-PCR) with primers listed in Table 1. mRNA was extracted from liquid nitrogen flash-frozen leaf tissue or seedlings stored at −80° C. While still frozen, tissue was crushed by shaking in a Mini-BeadBeater-16 (Biospec) for 15 seconds with ten 3 mm glass beads (Fisher). Afterwards, RNA was extracted with RNAzol-RT (Molecular Research Center) and the Direct-zol RNA Miniprep Plus Kit (Zymo Research) with on-column DNAse treatment to remove genomic DNA. RNA integrity was assessed using agarose gel electrophoresis, and concentration and purity were quantified with a NanoDrop (ND-1000 Spectrophotometer; ThermoScientific). cDNA was synthesized using either the SuperScript II First-Strand Synthesis System (Invitrogen) or the LunaScript RT SuperMix Kit (New England Biolabs) with up to 2.5 μg of RNA, according to manufacturer's instructions. cDNA was diluted 1:4, and 1 μL was used in a 10 μL reaction with SYBR Green ROX qPCR Master Mix (Qiagen or ABClonal) and 300 nM primers on the MX3000P qPCR instrument (Agilent) using the thermocycler protocol previously described with an extension time of 30 seconds. Ct values for each biological replicate were calculated as the average of two technical replicates. Transcript levels were normalized to the housekeeping gene, SAND [76], and fold changes relative to the negative control condition were calculated according to the […]. Amplification efficiency for each primer set was confirmed using Ct values over a range of cDNA dilutions and was 100%±10% for each gene monitored. Specificity of the primers were confirmed by gel electrophoresis and sequencing. SAND Ct values in no reverse-transcriptase controls were confirmed to be at least 5 Ct values above the respective experimental sample, indicating minimal genomic DNA contamination.
C. roseus var. Little Bright Eye seeds (NESeeds, 0.8 g) were sterilized by submersion in 4% Plant Preservative Mixture (PPM) for 18 hours in the dark. The PPM was then decanted, and the seeds were spread on full-strength Gamborg's media (3.1 g/L Gamborg's basal salts, 1× Gamborg's vitamins, and 6% micropropagation agar type 1, Phytotechnology Laboratory) inside a sterile Magenta™ Plant Culture Box (Sigma) for germination. Seeds were germinated in the dark at 27° C. for 5 days until the radicle of the seedling had just emerged. A 100 mM stock solution of paclobutrazol (PAC, PhytoTechnology Laboratories) was prepared with DMSO as the solvent, filter-sterilized, and stored at −20° C. until use. A final concentration of 1 μM PAC or an equivalent amount of DMSO (mock) was added to Gamborg's media after autoclaving. After germination, seedlings were sterilely transferred to a new Magenta™ Box containing Gamborg's media containing 1 μM PAC or DMSO. Seedlings were maintained in the dark at 27° C. for 4 days, and then were harvested by placing 3 whole seedlings in a 2 mL screw cap tube containing ten 3 mm glass beads for each biological replicate, flash-freezing in liquid nitrogen, and storing at −80° C. until ready for RNA extraction and qPCR analysis.

Structure (SMILES): CC(C)(C)[C@@H](O)[C@@H](Cc1ccc(Cl)cc1)n1cncn1 (racemic) [PAC, paclobutrazol]
- CrDELLA1 expression [1]: significantly decreased expression
- CrDELLA2 expression [1]: significantly decreased expression
- seedling height (C. roseus seedlings): significant decrease
- activation of CrLHCB2.2 expression (CrLHCB2.2): > 2 fold
- D4H gene expression [2]: significant decrease
- T16H2 gene expression [2]: no effect
- activation of DAT gene expression ([2]; not statistically significant): approximately 50%
- activation of NMT gene expression ([2]; not statistically significant): approximately 50%
- activation of T3O gene expression ([2]; not statistically significant): approximately 50%
- activation of T3R gene expression ([2]; not statistically significant): approximately 50%
- activation of 16OMT gene expression ([2]; statistically significant): approximately 50%
